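GI50 marks 50% less growth. At the TGI there is no net growth.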
Key:
Test in all cases: NCI tumour cell line growth inhibition, 384-well format
786-0 renal = tested on: 786-0 renal
A498 renal = tested on: A498 renal
ACHN renal = tested on: ACHN renal
BT-549 breast = tested on: BT-549 breast
CAKI-1 renal = tested on: CAKI-1 renal
CCRF-CEM leukemia = tested on: CCRF-CEM leukemia
COLO 205 colon = tested on: COLO 205 colon
DU-145 prostate = tested on: DU-145 prostate
EKVX NSCLC = tested on: EKVX NSCLC
HCC-2998 colon = tested on: HCC-2998 colon
HCT-15 colon = tested on: HCT-15 colon
HL-60(TB) leukemia = tested on: HL-60(TB) leukemia
HOP-62 NSCLC = tested on: HOP-62 NSCLC
HS 578T breast = tested on: HS 578T breast
IGROV1 ovarian = tested on: IGROV1 ovarian
KM12 colon = tested on: KM12 colon
LOX IMVI melanoma = tested on: LOX IMVI melanoma
M14 melanoma = tested on: M14 melanoma
MCF7 breast = tested on: MCF7 breast
MDA-MB-231 breast = tested on: MDA-MB-231 breast
MDA-MB-435 melanoma = tested on: MDA-MB-435 melanoma
MDA-MB-468 breast = tested on: MDA-MB-468 breast
MOLT-4 leukemia = tested on: MOLT-4 leukemia
NCI-H226 lung = tested on: NCI-H226 lung
NCI-H23 lung = tested on: NCI-H23 lung
NCI-H322M lung = tested on: NCI-H322M lung
NCI-H460 NSCLC = tested on: NCI-H460 NSCLC
NCI-H522 lung = tested on: NCI-H522 lung
NCI/ADR-RES ovarian = tested on: NCI/ADR-RES ovarian
OVCAR-3 ovarian = tested on: OVCAR-3 ovarian
OVCAR-4 ovarian = tested on: OVCAR-4 ovarian
RPMI-8226 leukemia = tested on: RPMI-8226 leukemia
RXF 393 renal = tested on: RXF 393 renal
SF-268 CNS = tested on: SF-268 CNS
SF-539 CNS = tested on: SF-539 CNS
SK-MEL-2 melanoma = tested on: SK-MEL-2 melanoma
SK-MEL-28 melanoma = tested on: SK-MEL-28 melanoma
SK-MEL-5 melanoma = tested on: SK-MEL-5 melanoma
SNB-19 CNS = tested on: SNB-19 CNS
SNB-75 CNS = tested on: SNB-75 CNS
SR leukemia = tested on: SR leukemia
SW-620 colon = tested on: SW-620 colon
T-47D breast = tested on: T-47D breast
TK-10 renal = tested on: TK-10 renal
U251 glioblastoma = tested on: U251 glioblastoma
UACC-257 melanoma = tested on: UACC-257 melanoma
UO-31 renal = tested on: UO-31 renal

For `CCN(CC)CCNC(=O)c1c(C)[nH]c(/C=C2\C(=O)Nc3ccc(F)cc32)c1C`, the GI50 (786-0 renal) was 1620 nM, the TGI (786-0 renal) was 3110 nM and the GI50 (A498 renal) was 1540 nM. The TGI (A498 renal) was 3140 nM, the GI50 (ACHN renal) was 1300 nM and the TGI (ACHN renal) was 3060 nM. It also gave a GI50 (BT-549 breast) of 1580 nM, a TGI (BT-549 breast) of 2980 nM and a GI50 (CAKI-1 renal) of 748 nM. The TGI (CAKI-1 renal) was 2060 nM, the GI50 (CCRF-CEM leukemia) was 1580 nM and the TGI (CCRF-CEM leukemia) was 2940 nM. For the same compound, the GI50 (COLO 205 colon) was 3180 nM, the TGI (COLO 205 colon) was 7890 nM and the GI50 (DU-145 prostate) was 2540 nM. For the same compound, the TGI (DU-145 prostate) was 11900 nM, the GI50 (EKVX NSCLC) was 3120 nM and the TGI (EKVX NSCLC) was 9470 nM. It also gave a GI50 (HCC-2998 colon) of 1710 nM, a TGI (HCC-2998 colon) of 3320 nM and a GI50 (HCT-15 colon) of 1190 nM. The TGI (HCT-15 colon) was 3600 nM, the GI50 (HL-60(TB) leukemia) was 892 nM and the TGI (HL-60(TB) leukemia) was 2130 nM. It also gave a GI50 (HOP-62 NSCLC) of 2780 nM, a TGI (HOP-62 NSCLC) of 8280 nM and a GI50 (HS 578T breast) of 1860 nM. The TGI (HS 578T breast) was 3730 nM, the GI50 (IGROV1 ovarian) was 1140 nM and the TGI (IGROV1 ovarian) was 5970 nM. It also gave a GI50 (KM12 colon) of 42.6 nM, a TGI (KM12 colon) of 4700 nM and a GI50 (LOX IMVI melanoma) of 1390 nM. For the same compound, the TGI (LOX IMVI melanoma) was 2710 nM, the GI50 (M14 melanoma) was 911 nM and the TGI (M14 melanoma) was 2150 nM. It also gave a GI50 (MCF7 breast) of 1360 nM, a TGI (MCF7 breast) of 3800 nM and a GI50 (MDA-MB-231 breast) of 2220 nM. It also gave a TGI (MDA-MB-231 breast) of 5500 nM, a GI50 (MDA-MB-435 melanoma) of 2450 nM and a TGI (MDA-MB-435 melanoma) of 6530 nM. The GI50 (MDA-MB-468 breast) was 2940 nM, the TGI (MDA-MB-468 breast) was 5410 nM and the GI50 (MOLT-4 leukemia) was 1030 nM. For the same compound, the TGI (MOLT-4 leukemia) was 2280 nM, the GI50 (NCI-H226 lung) was 1610 nM and the TGI (NCI-H226 lung) was 4480 nM. It also gave a GI50 (NCI-H23 lung) of 1910 nM, a TGI (NCI-H23 lung) of 4640 nM and a GI50 (NCI-H322M lung) of 2410 nM. It also gave a TGI (NCI-H322M lung) of 8960 nM, a GI50 (NCI-H460 NSCLC) of 1790 nM and a TGI (NCI-H460 NSCLC) of 5730 nM. It also gave a GI50 (NCI-H522 lung) of 2220 nM, a TGI (NCI-H522 lung) of 6490 nM and a GI50 (NCI/ADR-RES ovarian) of 2560 nM. The TGI (NCI/ADR-RES ovarian) was 6160 nM, the GI50 (OVCAR-3 ovarian) was 1780 nM and the TGI (OVCAR-3 ovarian) was 3310 nM. It also gave a GI50 (OVCAR-4 ovarian) of 3930 nM, a TGI (OVCAR-4 ovarian) of 8440 nM and a GI50 (RPMI-8226 leukemia) of 1380 nM. It also gave a TGI (RPMI-8226 leukemia) of 2780 nM, a GI50 (RXF 393 renal) of 1880 nM and a TGI (RXF 393 renal) of 3530 nM. It also gave a GI50 (SF-268 CNS) of 4230 nM, a TGI (SF-268 CNS) of 13100 nM and a GI50 (SF-539 CNS) of 1280 nM. It also gave a TGI (SF-539 CNS) of 2610 nM, a GI50 (SK-MEL-2 melanoma) of 1290 nM and a TGI (SK-MEL-2 melanoma) of 2570 nM. It also gave a GI50 (SK-MEL-28 melanoma) of 1660 nM, a TGI (SK-MEL-28 melanoma) of 3130 nM and a GI50 (SK-MEL-5 melanoma) of 1240 nM. It also gave a TGI (SK-MEL-5 melanoma) of 2500 nM, a GI50 (SNB-19 CNS) of 6080 nM and a TGI (SNB-19 CNS) of 13700 nM. It also gave a GI50 (SNB-75 CNS) of 3670 nM, a TGI (SNB-75 CNS) of 8240 nM and a GI50 (SR leukemia) of 1810 nM. For the same compound, the TGI (SR leukemia) was 3240 nM, the GI50 (SW-620 colon) was 1700 nM and the TGI (SW-620 colon) was 4290 nM. It also gave a GI50 (T-47D breast) of 4240 nM, a TGI (T-47D breast) of 8330 nM and a GI50 (TK-10 renal) of 3110 nM. It also gave a TGI (TK-10 renal) of 8020 nM, a GI50 (U251 glioblastoma) of 2090 nM and a TGI (U251 glioblastoma) of 5090 nM. For the same compound, the GI50 (UACC-257 melanoma) was 1710 nM, the TGI (UACC-257 melanoma) was 3100 nM and the GI50 (UO-31 renal) was 2170 nM. It also gave a TGI (UO-31 renal) of 6360 nM.
